Assay results from patent publication US20230312587A1, “PTERIDINONE COMPOUNDS AND USES THEREOF” (Vertex Pharmaceutical Incorporated, priority 2018, published 2023).
Like-named read-outs stand apart in the source and are kept apart here.

Experiments:
[1] = molecular target: HEK293 membranes over-expressing WFS-1 (Homo sapiens (Human), UniProt O76024); assay: Radioligand displacement assay (tritiated Compound 136 probe); type: binding; settings: displacement of tritiated Compound 136
Procedure, shortened: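 WFS-1-overexpressing HEK293 membranes were preincubated 10 min with compound, then tritiated probe was added for 90 min at room temperature. Bound probe was collected by filtration on PEI-pretreated GF/B filters, washed and scintillation-counted. IC50 came from a 3-parameter fit of bound probe vs compound concentration.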

Hek293 empty vector = assay: In vitro cell viability (CellTiter-Glo), Hek293 empty vector; type: cell-based
Procedure: (§1) HEK293 (ATCC, catalog #CRL-1573) cells are plated in 10 cm dishes (Corning, product #430167) into 10 mL of complete DMEM cell culture media [DMEM (Life Technologies, product #11960-051) media supplemented with 10% FBS (Hyclone, catalog #SH30071.03), antimycotic/antibiotic (Life Technologies, product #15240-062), and Glutamax (Life Technologies, product #35050-061)] at 3×10^6 cells per dish. Cells are allowed to attach and grow overnight at 37° C. in humidified 5% CO2. Cells are co-transfected with pVSV-G, pCMV-Gag/Pol and pCLPCX_WFS1 using Fugene 6 (Promega, catalog #E2691) according to manufacturer's protocol. Separately, cells are co-transfected with pVSV-G, pCMV-Gag/Pol and pCLPCX to produce control retrovirus. Cell culture media containing retrovirus (viral supernatant) is collected at 48 and 72 hours following transfection, filtered through a 0.4 uM filter, and stored at −80° C.
(§2) HEK293 cells are plated in 6 well plates (Corning, product #3516) in 2 mL of complete DMEM cell culture media at 1×10^5 cells well and allowed to attach and grow overnight at 37° C. in humidified 5% CO2. The following day, the media is replaced with viral supernatant to which 10 ug/ml of Polybrene® (Santa Cruz Biotech, catalog #sc-134220) is added. Viral supernatant is replaced 24 hours later with complete DMEM media. Transduced cells are selected in complete DMEM cell culture media containing 1 microgram/mL of puromycin (Life Technologies, catalog #A1113803).
(§3) HEK293 cells containing empty pCLPCx vector (HEK293 empty), HEK293 cells stably over-expression WFS1 (HEK293 WFS1), HepG2, and HepG2 cells where WFS1 was depleted via CRISPR/Cas9 (HepG2 WFS1 KO) cells were plated into 96-well black plates (Corning, product #3904) in 100 microliters of complete DMEM cell culture media [DMEM (Life Technologies, product #11960-051) media supplemented with 10% FBS (Hyclone, catalog #SH30071.03), antimycotic/antibiotic (Life Technologies, product #15240-062), and Glutamax (Life Technologies, product #35050-061)] at 1,000 (HEK293) or 5,000 (HepG2) cells per well. Cells were allowed to attach and grow overnight, after which compounds are added at various concentrations. Cell viability was assessed 96 hrs after compound addition with CellTiter-Glo reagent (Promega, catalog #G7570) according to manufacturer's protocol and measurement on a Pherastar luminescence plate reader (BMG Labtech).
(§4) The IC50s for the viability of both the Hek293 empty vector and WFS1 over-expressing cells are summarized in Table 47: A<0.06 μM; 0.06 μM≤B<0.6 μM; 0.6 μM≤C<3.0 μM; D≥3.0 μM.

[2] = tested on: Hek293 WFS1 over-expressor; assay: In vitro cell viability (CellTiter-Glo), Hek293 WFS1 over-expressor; type: cell-based
Procedure: WFS1 cDNA is amplified from clone RC202901 (Origene Technologies) with primers 5′-TCCGCGGCCCCAAGCTTATCGCCATGGACTCCAACACTGC-3′ (SEQ ID NO: 1), 5′-GATGGGCCCAGATCTCGAGTCAGGCCGCCGACAGGAATG-3′ (SEQ ID NO: 2) and cloned into a retroviral mammalian expression vector pCLPCX using HD Infusion (CLONTECH) at Hind3-Xhol sites using standard procedures. The resulting clone is identified as pCLPCX_WFS1.
as §1, §2, §3, §4

[3] = Homo sapiens, HEK293, read-out: Hek293 empty vector viability
[4] = Homo sapiens, HEK293, Hek293 WFS1 over-expressing cells, read-out: Hek293 WFS1 viability

Chain of HEK293 membranes over-expressing WFS-1 (O76024 whole entry): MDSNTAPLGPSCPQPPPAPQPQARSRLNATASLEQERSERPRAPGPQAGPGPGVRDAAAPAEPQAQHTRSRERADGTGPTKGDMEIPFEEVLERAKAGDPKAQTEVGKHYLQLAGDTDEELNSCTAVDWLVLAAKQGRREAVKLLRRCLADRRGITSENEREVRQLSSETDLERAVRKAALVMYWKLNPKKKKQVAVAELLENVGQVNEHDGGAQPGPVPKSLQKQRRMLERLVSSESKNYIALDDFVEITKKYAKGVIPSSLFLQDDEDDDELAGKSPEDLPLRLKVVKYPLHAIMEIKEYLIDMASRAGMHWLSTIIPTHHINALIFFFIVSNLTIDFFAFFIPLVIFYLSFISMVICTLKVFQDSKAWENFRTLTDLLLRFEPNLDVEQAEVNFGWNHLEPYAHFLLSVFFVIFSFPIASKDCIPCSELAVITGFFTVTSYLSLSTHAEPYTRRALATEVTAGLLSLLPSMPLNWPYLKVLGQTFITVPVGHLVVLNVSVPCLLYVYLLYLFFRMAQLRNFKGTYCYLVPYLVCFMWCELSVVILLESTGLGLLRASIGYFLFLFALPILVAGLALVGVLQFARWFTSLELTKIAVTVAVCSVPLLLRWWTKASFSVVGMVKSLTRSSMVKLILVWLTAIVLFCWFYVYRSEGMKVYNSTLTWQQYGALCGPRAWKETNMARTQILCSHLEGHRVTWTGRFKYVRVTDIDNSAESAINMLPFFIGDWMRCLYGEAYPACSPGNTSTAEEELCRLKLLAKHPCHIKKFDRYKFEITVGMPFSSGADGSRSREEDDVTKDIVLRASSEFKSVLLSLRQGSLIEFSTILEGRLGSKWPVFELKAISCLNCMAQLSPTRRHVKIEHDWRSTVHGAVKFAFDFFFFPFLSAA

Row | IC50 [1] | SMILES | IC50 (Hek293 empty vector; [3]) | IC50 [2, 4] | also measured
1 | 600 to 3000 nM | Cc1nn(C)cc1Cn1cc(CNc2nc(C)c3c(n2)N(C)[C@@H](C)C(=O)N3)cn1 [Compound 139, (7S)-2-(((1-((1,3-dimethyl-1H-pyrazol-4-yl)methyl)-1H-pyrazol-4-yl)methyl)amino)-4,7,8-trimethyl-7,8-dihydropteridin-6(5H)-one] | ≥ 3000 nM | ≥ 3000 nM | 
2 | 60 to 600 nM | Cc1nc(NCc2cnn([C@H]3CCN(C4CCC(F)(F)CC4)C3)c2)nc2c1NC(=O)[C@H](C)N2C [Compound 142, (7S)-2-(((1-((S)-1-(4,4-difluorocyclohexyl)pyrrolidin-3-yl)-1H-pyrazol-4-yl)methyl)amino)-4,7,8-trimethyl-7,8-dihydropteridin-6(5H)-one] | ≥ 3000 nM | 60 to 600 nM | 
3 | 60 to 600 nM | Cc1nc(NCc2ccc(-n3cc(C(F)(F)F)cn3)nc2)nc2c1NC(=O)[C@H](C)N2C [Compound 143, (S)-4,7,8-trimethyl-2-(((6-(4-(trifluoromethyl)-1H-pyrazol-1-yl)pyridin-3-yl)methyl)amino)-7,8-dihydropteridin-6(5H)-one] | ≥ 3000 nM | 60 to 600 nM | 
4 | 60 to 600 nM | Cc1nc(NCc2cnn(Cc3ccc(C(F)(F)F)cc3)c2)nc2c1NC(=O)[C@H](C)N2C [Compound 149, (7S)-4,7,8-trimethyl-2-(((1-(4-(trifluoromethyl)benzyl)-1H-pyrazol-4-yl)methyl)amino)-7,8-dihydropteridin-6(5H)-one] | ≥ 3000 nM | < 60 nM | 
5 | < 60 nM | Cc1nc(NCc2cnn([C@@H]3C[C@@H]3c3ccc(F)cc3)c2)nc2c1NC(=O)[C@H](C)N2C [Compound 154, (7S)-2-(((1-((1R,2R)-2-(4-fluorophenyl)cyclopropyl)-1H-pyrazol-4-yl)methyl)amino)-4,7,8-trimethyl-7,8-dihydropteridin-6(5H)-one] | ≥ 3000 nM | < 60 nM | 
6 | 60 to 600 nM | Cc1nc(NCc2cnn(Cc3cc(C(F)(F)F)nn3C)c2)nc2c1NC(=O)[C@H](C)N2C [Compound 160, (7S)-4,7,8-trimethyl-2-(((1-((1-methyl-3-(trifluoromethyl)-1H-pyrazol-5-yl)methyl)-1H-pyrazol-4-yl)methyl)amino)-7,8-dihydropteridin-6(5H)-one] | ≥ 3000 nM | < 60 nM | 
7 | ≥ 3000 nM | Cc1ncc(Cn2cc(CNc3nc(C)c4c(n3)N(C)[C@@H](C)C(=O)N4)cn2)cn1 [Compound 163, (7S)-4,7,8-trimethyl-2-(((1-((2-methylpyrimidin-5-yl)methyl)-1H-pyrazol-4-yl)methyl)amino)-7,8-dihydropteridin-6(5H)-one] | ≥ 3000 nM | ≥ 3000 nM | 
8 | 60 to 600 nM | Cc1cnc(C(F)(F)F)nc1-n1cc(CNc2ncc3c(n2)N(C)[C@@H](C)C(=O)N3)cn1 [Compound 164, (7S)-7,8-dimethyl-2-(((1-(5-methyl-2-(trifluoromethyl)pyrimidin-4-yl)-1H-pyrazol-4-yl)methyl)amino)-7,8-dihydropteridin-6(5H)-one] | ≥ 3000 nM | 600 to 3000 nM | 
9 | 60 to 600 nM | Cc1nc(NCc2cnn([C@@H]3CCN(c4ccc(F)cc4)C3)c2)nc2c1NC(=O)[C@H](C)N2C [Compound 170, (7S)-2-(((1-((R)-1-(4-fluorophenyl)pyrrolidin-3-yl)-1H-pyrazol-4-yl)methyl)amino)-4,7,8-trimethyl-7,8-dihydropteridin-6(5H)-one] | ≥ 3000 nM | < 60 nM | 
10 | 600 to 3000 nM | Cc1ccc(Cn2cc(CNc3nc(C)c4c(n3)N(C)[C@@H](C)C(=O)N4)cn2)cn1 [Compound 173, (7S)-4,7,8-trimethyl-2-(((1-((6-methylpyridin-3-yl)methyl)-1H-pyrazol-4-yl)methyl)amino)-7,8-dihydropteridin-6(5H)-one] | ≥ 3000 nM | 60 to 600 nM | 
11 | 60 to 600 nM | Cc1nc(NCc2cnn([C@@H](C)c3ccc(C(F)(F)F)nc3)c2)nc2c1NC(=O)[C@H](C)N2C [Compound 174, (7S)-4,7,8-Trimethyl-2-(((1-((S)-1-(6-(trifluoromethyl)pyridin-3-yl)ethyl)-1H-pyrazol-4-yl)methyl)amino)-7,8-dihydropteridin-6(5H)-one] | ≥ 3000 nM | < 60 nM | 
12 | 60 to 600 nM | CC[C@H]1C(=O)Nc2c(C)nc(NCc3cnn(Cc4ccc(C(F)(F)F)nc4)c3)nc2N1C [Compound 186, (7S)-7-ethyl-4,8-dimethyl-2-(((1-((6-(trifluoromethyl)pyridin-3-yl)methyl)-1H-pyrazol-4-yl)methyl)amino)-7,8-dihydropteridin-6(5H)-one] | ≥ 3000 nM | < 60 nM | 
13 | 60 to 600 nM | Cc1nc(C(F)(F)F)ccc1Cn1cc(CNc2nc(C)c3c(n2)N(C)[C@@H](C)C(=O)N3)cn1 [Compound 188, (S)-4,7,8-trimethyl-2-(((1-((2-methyl-6-(trifluoromethyl)pyridin-3-yl)methyl)-1H-pyrazol-4-yl)methyl)amino)-7,8-dihydropteridin-6(5H)-one] | ≥ 3000 nM | < 60 nM | 
14 | 60 to 600 nM | Cc1nc(NCc2cnn(Cc3ccnc(C(F)(F)F)c3)c2)nc2c1NC(=O)[C@H](C)N2C [Compound 207, (7S)-4,7,8-trimethyl-2-(((1-((2-(trifluoromethyl)pyridin-4-yl)methyl)-1H-pyrazol-4-yl)methyl)amino)-7,8-dihydropteridin-6(5H)-one] | ≥ 3000 nM | < 60 nM | 
15 | 600 to 3000 nM | Cc1nc(NCc2cnn(Cc3ccc(F)cc3)c2)nc2c1NC(=O)C1(CC1)N2 [Compound 222, 2′-(((1-(4-fluorobenzyl)-1H-pyrazol-4-yl)methyl)amino)-4′-methyl-5′,8′-dihydro-6′H-spiro[cyclopropane-1,7′-pteridin]-6′-one] | ≥ 3000 nM | ≥ 3000 nM | 
16 | 60 to 600 nM | CN1C(=O)C(C)(C)N(C)c2nc(NCc3cnn(Cc4cccnc4C(F)(F)F)c3)ncc21 [Compound 237, 5,7,7,8-Tetramethyl-2-(((1-((2-(trifluoromethyl)pyridin-3-yl)methyl)-1H-pyrazol-4-yl)methyl)amino)-7,8-dihydropteridin-6(5H)-one] | ≥ 3000 nM | 60 to 600 nM | 
17 | 60 to 600 nM | Cc1nc(N[C@H]2C[C@H](Oc3cc(F)c(F)c(F)c3)C2)nc2c1NC(=O)[C@H](C)N2C [Compound 246, (7S)-4,7,8-trimethyl-2-((trans-3-(3,4,5-trifluorophenoxy)cyclobutyl)amino)-7,8-dihydropteridin-6(5H)-one] | ≥ 3000 nM | < 60 nM | 

Row | SMILES | IC50 [1] | IC50 (Hek293 empty vector; [3]) | IC50 [2, 4] | also measured
18 | Cc1nc(NCc2cnn(Cc3ccc(C(F)(F)F)nc3)c2)nc2c1NC(=O)[C@H](C)N2C [Compound 136, (7S)-4,7,8-trimethyl-2-(((1-((6-(trifluoromethyl)pyridin-3-yl)methyl)-111-pyrazol-4-yl)methyl)amino)-7,8-dihydropteridin-6(5H)-one] | 60 to 600 nM |  |  | IC50 (Hek293 empty vector; Hek293 empty vector, read-out: Hek293 empty vector viability): ≥ 3000 nM; IC50 (Hek293 empty vector; cell viability, Hek293 empty vector, read-out: IC50): > 27000 nM; IC50 (Hek293 empty vector; cell viability, Hek293 empty vector, read-out: IC50 class): ≥ 3000 nM; IC50 ([2]; Hek293 WFS1 over-expressing cells, read-out: Hek293 WFS1 viability): < 60 nM; IC50 ([2]; cell viability, Hek293 WFS1 over-expressor, read-out: IC50): 30 nM; IC50 ([2]; cell viability, Hek293 WFS1 over-expressor, read-out: IC50 class): < 60 nM; reduction in the IC50 on over-expression of WFS1 in Hek293 cells ([2]; cell viability, WFS1 over-expressor vs empty vector): > 1000 fold
